In paper PMC12044090 (EJNMMI Research, 2025) one finds IC50 data, which are given here for 2 compounds.

The IC50 is the concentration that gives 50% inhibition. Low values mean greater potency in that assay, high ones weaker potency in that assay.

SMILES strings stand for the structures.

For this test, the target named is T1, FAP (HT1080-hFAP cells) (Homo sapiens, UniProt Q12884).
T1 sequence (Q12884 1-760): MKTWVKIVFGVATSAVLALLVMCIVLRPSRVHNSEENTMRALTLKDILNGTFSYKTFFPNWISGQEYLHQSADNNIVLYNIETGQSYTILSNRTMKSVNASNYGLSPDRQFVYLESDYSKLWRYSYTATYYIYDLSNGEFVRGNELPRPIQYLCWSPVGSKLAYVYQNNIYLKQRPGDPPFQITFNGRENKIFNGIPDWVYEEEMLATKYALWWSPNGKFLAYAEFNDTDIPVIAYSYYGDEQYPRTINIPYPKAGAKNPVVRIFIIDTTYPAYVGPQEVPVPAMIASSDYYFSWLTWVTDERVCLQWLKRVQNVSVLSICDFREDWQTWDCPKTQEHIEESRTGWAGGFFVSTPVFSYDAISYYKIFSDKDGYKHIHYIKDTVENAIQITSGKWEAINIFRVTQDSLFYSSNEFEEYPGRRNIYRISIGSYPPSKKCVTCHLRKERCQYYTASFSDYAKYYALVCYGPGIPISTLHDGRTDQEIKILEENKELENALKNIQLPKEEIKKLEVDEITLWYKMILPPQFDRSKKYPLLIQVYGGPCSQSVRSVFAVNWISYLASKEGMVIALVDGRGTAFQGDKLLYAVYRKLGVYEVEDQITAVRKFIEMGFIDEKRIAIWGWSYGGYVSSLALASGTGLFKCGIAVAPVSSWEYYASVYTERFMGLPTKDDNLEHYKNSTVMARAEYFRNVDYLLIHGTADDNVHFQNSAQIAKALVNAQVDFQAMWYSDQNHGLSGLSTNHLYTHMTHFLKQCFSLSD
Description: Affinity assay: competition against [68Ga]Ga-FAP2286 in HT1080-hFAP cells. The class given is binding.

Turning to `CCCCCC(=O)N[C@H]1CSCc2cc(CSCCNC(=O)CCCCCNC(=O)CC[C@H](NC(=O)CCC(C(=O)O)N3CCN(CC(=O)O)CCN(CC(=O)O)CCN(CC(=O)O)CC3)C(=O)NCCCOc3ccc4nccc(C(=O)NCC(=O)N5CC(F)(F)C[C@H]5C#N)c4c3)cc(c2)CSC[C@@H](C(=O)O)NC(=O)[C@H](Cc2ccccc2)NC(=O)[C@H](CCC(N)=O)NC(=O)[C@H]([C@@H](C)O)NC(=O)[C@@H]2CCCN2C(=O)[C@@H]2CCCN2C1=O` (some centres unmarked) [BiFAPI], the IC50 amounted to 11.4 ± 1.66 nM. Turning to `CCCCCC(=O)N[C@H]1CSCc2cc(CSCCNC(=O)CN3CCN(CC(=O)O)CCN(CC(=O)O)CCN(CC(=O)O)CC3)cc(c2)CSC[C@@H](C(=O)O)NC(=O)[C@H](Cc2ccccc2)NC(=O)[C@H](CCC(N)=O)NC(=O)[C@H]([C@@H](C)O)NC(=O)[C@@H]2CCCN2C(=O)[C@@H]2CCCN2C1=O` [FAP2286], the IC50 was found to be 6.58 ± 1.6 nM.
